Holding throughout (format): biochemical
Experiment [1] has as its target T1, human glutathione reductase (hGR) (Homo sapiens, UniProt P00390).
T1 construct: gene GSR; recombinant human glutathione reductase
T1 sequence (P00390 44-522): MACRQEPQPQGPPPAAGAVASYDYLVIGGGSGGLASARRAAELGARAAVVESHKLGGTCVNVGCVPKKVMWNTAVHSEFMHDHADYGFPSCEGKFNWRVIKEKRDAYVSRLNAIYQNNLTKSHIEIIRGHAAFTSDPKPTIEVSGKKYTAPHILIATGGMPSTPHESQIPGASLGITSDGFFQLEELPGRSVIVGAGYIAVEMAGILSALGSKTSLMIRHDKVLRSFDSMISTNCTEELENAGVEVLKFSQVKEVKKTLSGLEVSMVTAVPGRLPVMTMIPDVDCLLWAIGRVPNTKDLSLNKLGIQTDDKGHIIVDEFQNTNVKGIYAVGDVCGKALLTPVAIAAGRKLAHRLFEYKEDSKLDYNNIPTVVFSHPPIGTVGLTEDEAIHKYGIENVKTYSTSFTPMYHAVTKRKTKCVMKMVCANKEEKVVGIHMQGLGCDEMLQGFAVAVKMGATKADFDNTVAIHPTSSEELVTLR
Nature of the experiment: spectrophotometric NADPH consumption ([…] nm) with GSSG; Lineweaver-Burk and non-linear regression.

Experiment [2] has as its target T2, trypanothione reductase (TR) (Trypanosoma brucei, UniProt P39051).
T2 construct: gene TPR; recombinant Trypanosoma brucei TR
The experiment is described as follows: spectrophotometric NADPH consumption ([…] nm) with TS2; Lineweaver-Burk and non-linear regression.

Experiment [3] deals with T2, trypanothione reductase (TR). Nature of the experiment: spectrophotometric NADPH consumption ([…] nm) with TS2; % inhibition at […] ([…] TS2). The conditions noted are these: read-out: % Inhibition of TR / 44 μM [TS2].

T2 sequence (P39051 whole entry): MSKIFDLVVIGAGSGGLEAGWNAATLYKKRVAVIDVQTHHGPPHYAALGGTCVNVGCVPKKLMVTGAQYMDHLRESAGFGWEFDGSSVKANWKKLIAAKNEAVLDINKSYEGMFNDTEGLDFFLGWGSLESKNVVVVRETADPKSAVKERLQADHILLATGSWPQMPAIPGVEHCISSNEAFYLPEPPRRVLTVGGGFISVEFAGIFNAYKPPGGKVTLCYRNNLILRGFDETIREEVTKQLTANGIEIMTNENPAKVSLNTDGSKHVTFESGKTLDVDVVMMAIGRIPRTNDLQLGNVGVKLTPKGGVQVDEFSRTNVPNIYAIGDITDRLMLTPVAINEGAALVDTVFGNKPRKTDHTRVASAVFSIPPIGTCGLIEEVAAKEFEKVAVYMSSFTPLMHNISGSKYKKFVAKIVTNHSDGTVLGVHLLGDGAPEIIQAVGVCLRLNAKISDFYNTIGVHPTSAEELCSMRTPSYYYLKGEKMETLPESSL

For `CCCCOC(=O)c1ccc2c(c1)[n+]([O-])c(C(=O)C(C)(C)C)c(C(F)(F)F)[n+]2[O-]` [T-147], the inhibition constant Ki in experiment [1] amounted to 25 µM; in experiment [2], 11.4 µM.

For the compound `CCCCOC(=O)c1ccc2c(c1)[n+]([O-])c(C(=O)c1ccccc1)c(C(F)(F)F)[n+]2[O-]` [T-148], the inhibition at 20 µM in experiment [3] was 36%.

What is called Ki is a dissociation constant, usually derived from enzyme kinetics or from competition with a known ligand.

(Values after paper PMC9655728, “In Vitro and In Silico Analysis of New n-Butyl and Isobutyl Quinoxaline-7-carboxylate 1,4-di-N-oxide Derivatives against Trypanosoma cruzi as Trypanothione Reductase Inhibitors” (International Journal of Molecular Sciences, 2022).)
